Values of other authors in paper PMC3086271 (Biochemical Journal, 2011).
Read-outs that look alike come from different tables or passages of the source.

Columns and labels:
[1] = target: C-ACE of human somatic ACE; conditions: read-out: Ki for C-ACE
[2] = target: N-ACE of human somatic ACE; conditions: read-out: Ki for N-ACE
[3] = tested on: mean arterial blood pressure; conditions: spontaneous hypertensive rat, intravenous, 10 mg/kg of body weight

**Q.** Which Ki ([1]; C-ACE-specific phosphinic inhibitor) does the source give for O=C(N[C@@H](Cc1ccccc1)P(=O)(O)C1CCCC1C(=O)N[C@@H](Cc1c[nH]c2ccccc12)C(=O)O)OCc1ccccc1 (some centres unmarked) [RXPA380] here?
**A.** 3 nM

**Q.** And the Ki [2]?
**A.** 2500 nM

**Q.** Which “lowering of mean arterial blood pressure as compared with controls” value [3] does the source give for O=C(N[C@@H](Cc1ccccc1)P(=O)(O)CC(Cc1cc(-c2ccccc2)no1)C(=O)N[C@@H](Cc1ccc(O)cc1)C(=O)O)OCc1ccccc1 (stereo partly drawn) [FII, (2S)-2-({3[hydroxyl(2-phenyl-(1R)-1-{[(benzyloxy)carbonyl]-amino}ethyl)phosphinyl]-2-[(3-phenylisoxazol-5-yl)methyl]-1-oxo-propyl}amino)-3-(4-hydroxy-phenyl) propanoic acid] here?
**A.** 24±2 mmHg

**Q.** Which Ki ([1]; C-ACE of human somatic ACE) does the source give for NCCCC[C@H](N[C@@H](CCc1ccccc1)C(=O)O)C(=O)N1CCC[C@H]1C(=O)O [lisinopril] here?
**A.** 2.4 nM

**Q.** What about the Ki ([2]; N-ACE of human somatic ACE) of the same compound?
**A.** 44 nM
